In patent US20070117743A1, “New antitumoral compounds” (priority 2003, published 2007):

Key:
Format in all cases: cell-based, human
Conditions in all cases: 48 hours exposure, SRB
SK-MEL-28 = test: SRB colorimetric assay of cell growth and viability, SK-MEL-28
PANC-1 = test: SRB colorimetric assay of cell growth and viability, PANC-1
A-549 = test: SRB colorimetric assay of cell growth and viability, A-549
HT-29 = test: SRB colorimetric assay of cell growth and viability, HT-29
HeLa = test: SRB colorimetric assay of cell growth and viability, HeLa
LNCaP = test: SRB colorimetric assay of cell growth and viability, LNCaP
HeLa-APL = test: SRB colorimetric assay of cell growth and viability, HeLa-APL
SK-BR-3 = test: SRB colorimetric assay of cell growth and viability, SK-BR-3
LoVo-Dox = test: SRB colorimetric assay of cell growth and viability, LoVo-Dox
Procedure, shortened: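 Absorbance at 490 nm of Tris-solubilized sulforhodamine B gives the read-out after cells are fixed with cold 50% TCA for 60 min at 4° C. Compound exposure lasts 48 hours over 10 to 10^−8 μg/mL. Growth inhibition, total growth inhibition and lethal concentration are calculated from triplicate wells.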

LoVo = test: SRB colorimetric assay of cell growth and viability, LoVo
IGROV-1 = test: SRB colorimetric assay of cell growth and viability, IGROV-1
DU-145 = test: SRB colorimetric assay of cell growth and viability, DU-145
IGROV-ET = test: SRB colorimetric assay of cell growth and viability, IGROV-ET

C/C=C1\NC(=O)[C@H](Cc2ccc(Cl)c(Cl)c2)NC(=O)[C@@H](C(C)C)NC(=O)[C@@H]([C@@H](C)CC)NC(=O)[C@H](NC(=O)[C@H](NC(=O)[C@H](CCCN)NC(=O)[C@H]2CCCN2C(=O)[C@H](NC(=O)[C@@H](NC(=O)[C@@H](NC(=O)[C@H](NC(=O)CC[C@@H](C)CC)C(C)C)[C@@H](C)O)C(C)C)C(C)C)[C@@H](C)CC)[C@@H](C)OC(=O)[C@H](C(C)C)NC1=O [Compound 70, [Phe(3,4-Cl2)^3, (4S)-MeHex^14]-KF]
GI50 (SK-MEL-28): 120 nM | TGI MEL-28 (SK-MEL-28): 2.39E−07 Molar | CC50 (SK-MEL-28; read-out: LC50 MEL-28): 475 nM | GI50 (PANC-1): 1000 nM | TGI PANC-1 (PANC-1): 1.85E−06 Molar | CC50 (PANC-1; read-out: LC50 PANC-1): 3420 nM | TGI A-549 (A-549): 3.32E−07 Molar | GI50 (A-549; read-out: GI50 A-549): 183 nM | CC50 (A-549; read-out: LC50 A-549): 604 nM | TGI HT-29 (HT-29): 2.13E−07 Molar | GI50 (HT-29; read-out: GI50 HT-29): 111 nM | CC50 (HT-29; read-out: LC50 HT-29): 412 nM | GI50 (HeLa): 125 nM | TGI HELA (HeLa): 2.22E−07 Molar | CC50 (HeLa; read-out: LC50 HELA): 397 nM | TGI LN-caP (LNCaP): 2.08E−07 Molar | GI50 (LNCaP; read-out: GI50 LN-caP): 66.6 nM | CC50 (LNCaP; read-out: LC50 LN-caP): 6470 nM | GI50 (HeLa-APL): 259 nM | TGI HELA-APL (HeLa-APL): 7.63E−07 Molar | CC50 (HeLa-APL; read-out: LC50 HELA-APL): 2240 nM | GI50 (SK-BR-3): 52.8 nM | LC50 (SK-BR-3): 299 nM | TGI SK-BR-3 (SK-BR-3): 1.18E−08 Molar | GI50 (LoVo-Dox): 28.5 nM | TGI LOVO-DOX (LoVo-Dox): 8.15E−08 Molar | CC50 (LoVo-Dox; read-out: LC50 LOVO-DOX): 612 nM | GI50 (LoVo): 68.5 nM | TGI LOVO (LoVo): 4.11E−07 Molar | CC50 (LoVo; read-out: LC50 LOVO): 1730 nM | GI50 (IGROV-1): 182 nM | LC50 (concentration causing 50% net cell killing) (IGROV-1): 487 nM | TGI IGROV (IGROV-1): 2.97E−07 Molar | GI50 (DU-145): 142 nM | LC50 (concentration causing 50% net cell kill) (DU-145): 465 nM | TGI DU-145 (DU-145): 2.57E−07 Molar | GI50 (IGROV-ET): 112 nM | TGI IGROV-ET (IGROV-ET): 2.09E−07 Molar | CC50 (IGROV-ET; read-out: LC50 IGROV-ET): 387 nM
